Reference: patent publication US8729286B2, “Platinum compounds as treatment for cancers, and related methods, kits, and compositions” (Massachusetts Institute of Technology, priority 2012, dated 2014)
Entries after “also recorded” stand apart in the source; their conditions may differ.

How the values were obtained:
[1] = system: A549 (human lung cancer); experiment: MTT cytotoxicity assay, A549; type: cell-based; conditions: continuous 72 h
Method: (§1) The cells were treated for a continuous 72 h period. The resulting 50% growth inhibitory concentration (IC50) values are summarized in Table 4 and graphically depicted in FIG. 5.
(§2) HeLa (human cervical cancer), A549 (human lung cancer), U2OS (osteosarcoma), MCF-7 (human breast cancer) cells were grown as adherent monolayers in growth medium consisting of Dulbecco's Modified Eagle Medium (DMEM) supplemented with 10% fetal bovine serum (FBS) and 1% penicillin/streptomycin. The cultures were grown in 25 cm^2 flasks in an incubator at 37° C. with a humidified atmosphere composed of 5% CO2.
(§3) Trypsinized cells were seeded into a 96-well plate at a cell density of 2000 cells/well in 200 μL of growth medium and incubated for 24 h. The medium was then removed and 200 μL new growth medium containing various concentrations of the platinum complexes was added. After 72 h, the medium was removed, 200 μL of a 0.8 mg/mL solution of MTT in DMEM was added, and the plate was incubated further for 4 h. The DMEM/MTT mixture was aspirated and 200 μL of DMSO with 10% pH 10.5 glycine buffer was added to dissolve the resulting purple formazan crystals. The absorbance of the plates was read at 555 nm. Absorbance values were normalized to the platinum-free control wells and plotted as [Pt] versus % viability. IC50 values were interpolated from the resulting curves. The reported IC50 values are the averages from at least three independent experiments, which each consisted of six replicates per concentration level.

[2] = system: HeLa cells; experiment: Cellular uptake in HeLa cells by GFAAS; type: cell-based, human; conditions: 10 μM, 4 h exposure
Method: The cellular uptake scales with the lipophilicity of the compound in an exponential fashion (FIG. 6). The most lipophilic complex, 5, is taken up to the largest extent (520±80 ng Pt/10^6 cells), whereas the least lipophilic complex is taken up to the least extent (6±2 ng Pt/10^6 cells).
The total platinum uptake per cell was determined using slight modifications of a previously described protocol. In two 6-well plates, 3×10^5 cells per well were seeded in 3 wells with 2.5 mL of growth medium. In one of the plates, the additional 3 wells were filled with 2.5 mL of growth medium to act as blanks for non-specific platinum adsorption on the surface of the well. After incubating for 48 h, each well in the plate containing both cells and cell-free medium was treated with 0.278 mL of a 100-μM solution of the desired compound to give an exposure concentration of 10 μM. The cells and cell-free blanks were incubated with the Pt complex for 4 h. Meanwhile, the cells in the other plate were counted with trypan blue after detachment with trypsin in order to obtain the number of cells per well. After the 4 h incubation period, the growth medium was aspirated and all six wells were washed twice with 3 mL of pH 7.4 PBS and then treated with exactly 0.5 mL of hot (≈90° C.) concentrated nitric acid for 2 h. This nitric acid was analyzed by GFAAS to determine the total Pt content per well. The amount of Pt per cell was calculated by subtracting the average amount of Pt found in the blank wells from the average amount of Pt found in the cell-containing wells and normalizing to the average number of cells per well.

[3] = Solution stability in water at 37° C. by NMR spectroscopy; type: physicochemical; conditions: for stability in water (1H NMR spectra): up to 25 days; for half-life of decomposition in water: NMR, first-order fit
Method: (§4) The stabilities of 1-5 in water and pH 7.4 phosphate buffered saline (PBS) at 37° C. were determined by NMR spectroscopy. […] Over the course of this reaction, the pH changed from 7.5 to 6.3. For 4, the rate of decomposition was quicker. […] The pH of this solution remained at 7.5 for the duration of the experiment.
(§5) The platinum complexes were dissolved in water or pH 7.4 PBS containing 10% D2O to a typical concentration of 1 mM. The solutions were transferred to NMR tubes and incubated in a 37° C. water bath. ^1H and ^19F NMR spectra were obtained at various type points during the incubation. A small amount of 1,4-dioxane (δ=3.75 ppm) was included in the samples as an internal standard for referencing the ^1H NMR spectra and a sealed capillary containing aqueous KF (δ=−120.46 ppm) was used for referencing ^19F NMR spectra. The methyl group of 2 in the ^1H NMR spectra was integrated relative to the 1,4-dioxane reference at different time points and used for kinetic analyses. The trifluoromethyl group of 4 in the ^19F NMR spectra was integrated relative to the KF standard at different time points and used for kinetic analyses. Under the assumption of first-order kinetics, approximate half-lives were determined by fitting a line to a plot of ln [Pt] versus time and using the integrated first-order rate law, ln [Pt]=−kt+[Pt]o and the relationship, t1/2=ln 2/k, where [Pt]c, is the starting concentration of complex, k is the pseudo first-order rate constant, t is time, and t1/2 is the half-life. Water suppression for ^1H NMR spectra was accomplished with presaturation. The pH of the solutions was measured at the beginning and end of the desired incubation time using a DG-111-SG glass electrode calibrated with standard buffers.

[4] = system: nuclear DNA of HeLa cells; experiment: Intracellular DNA platination in HeLa cells by GFAAS; type: cell-based, human; conditions: 100 μM for 4 h, then 16 h platinum-free medium
Method: Because platinum-based drugs exert their cytotoxic effects by the formation of DNA cross-links, the extent to which 1-5 bind to intracellular DNA was measured. Cells were treated with 100 μM of the platinum complexes for 4 h and then incubated for an additional 16 h in platinum-free growth medium. The nuclear DNA was isolated, and the quantity of bound platinum was measured by GFAAS.
Five million HeLa cells were seeded in a 100 mm Petri dish containing 9 mL of growth medium. On the following day, the cells were treated with the platinum complex at 100 μM concentration for 4 h. The growth medium was then replaced with platinum-free medium, and the cells were incubated for an additional 16 h. Cells, both floating and attached, were collected and combined. Trypsin (2 mL) was used to detach the cells. The combined cells were centrifuged for 5 min at 4° C., and the resulting cell pellet was washed twice with 3 mL of ice-cold PBS. DNAzol (1 mL, genomic DNA isolation reagent, MRC), containing 100 μg/mL RNase A, was used to lyse the cell pellet. DNA was precipitated with 0.5 mL of absolute ethanol, washed 2 times with 75% ethanol (0.75 mL), and redissolved in 200 μL of 8 mM NaOH. The DNA concentration was determined by UV-visible spectroscopy, and platinum was quantified by GFAAS. The reported values are the average of at least three independent experiments with the error reported as the standard deviation.

[5] = system: MCF-7 (human breast cancer); experiment: MTT cytotoxicity assay, MCF-7; type: cell-based; conditions: continuous 72 h
Method: as §1, §2, §3

[6] = Solution stability in pH 7.4 PBS at 37° C. by NMR spectroscopy; type: physicochemical; conditions: for stability in pH 7.4 PBS (1H NMR spectra): up to 25 days; for half-life of decomposition in pH 7.4 PBS: NMR, first-order fit
Method: as §4
In pH 7.4 PBS, the rates of decomposition increased. The half-lives of 2 and 4 in this medium were 3.4 and 1.8 days, respectively. For 4, the final product was the same as that observed in the aquation in non-buffered water characterized by a ^19F NMR chemical shift at −76.6 ppm. […] Although the major final product was the same as that observed for the aquation in pure water (^1H δ=2.22 ppm), two other minor products were observed by ^1H NMR spectroscopy with CH3 proton resonances at 1.91 and 1.56 ppm.
as §5

[7] = system: HeLa (human cervical cancer); experiment: MTT cytotoxicity assay, HeLa; type: cell-based; conditions: continuous 72 h
Method: as §1, §2, §3

[8] = system: U2OS (human osteosarcoma); experiment: MTT cytotoxicity assay, U2OS; type: cell-based; conditions: continuous 72 h
Method: as §1, §2, §3

[9] = Solubility observations; type: physicochemical; conditions: for solubility in water: water (cold water wash)
[10] = up 60 days; cited from earlier work
[11] = system: central nervous system (CNS) cancer cell lines; experiment: NCI-60 tumor cell panel screen, CNS cancer cell lines; type: cell-based; conditions: 10 μM single dose, 48 h, SRB assay
Method: (§6) Compound 4 was submitted to the NCI in July 2011 for single-dose testing in the NCI-60 tumor cell screen. These tests were carried out by the NCI using their established protocols.

[12] = system: HeLa, A549, U2OS, and MCF-7 cell lines; experiment: MTT cytotoxicity assay, summary over the four cell lines; type: cell-based, human; conditions: 72 h, mean of HeLa, read-out: average IC50 value in the four cell lines tested
Method: as §1, §2
as §3, with “The reported IC50 values are the averages from at least three independent experiments, which each consisted of six replicates per concentration level.” left out

[13] = system: NCI-60 tumor cell panel (60 cell lines); experiment: NCI-60 tumor cell panel screen, single dose; type: cell-based; conditions: 10 μM single dose, 48 h, SRB assay, relative to complex-free control
Method: as §6

SMILES	HeLa Cellular Uptake [2] [ng Pt/10^6 cells]	solubility in aqueous and organic solvent ([9]; aqueous and organic solvent)	half-life of decomposition in water [3] [days]	half-life of decomposition in pH 7.4 PBS [6] [days]	solubility in water [9]	IC50 [1] [µM]	stability in water (1H NMR spectra) [3]	Pt/DNA [4] [pmol/µg]	IC50 [5] [µM]	stability in pH 7.4 PBS (1H NMR spectra) [6]	IC50 [7] [µM]	IC50 [8] [µM]	DNA platination [4]	decomposition in water [10]	average cell growth in CNS cancer cell lines [11] [%]	IC50 [12] [µM]	average cell growth percentage of the 60 cell lines [13] [%]
CC1=CC(C(F)(F)F)=[O+][Pt-2]([NH3+])([NH3+])[O]1.CC1=CC(C(F)(F)F)=[O+][Pt-2]([NH3+])([NH3+])[O]1.O=S(=O)([O-])[O-] (stereo not shown) [Compound 2, [Pt(tfac)(NH3)2](SO4)0.5]	29 ± 9	low solubility	58	3.4		2.2 ± 0.6		0.30 ± 0.07	15		2.9 ± 0.7	4.1 ± 0.8	≈ 0.3 pmol Pt/μg DNA				
N.N.O=C([O-])C1(C(=O)[O-])CCC1.[Pt+2] [carboplatin]														no decomposition			
N.N.[Cl][Pt][Cl] [cisplatin, cis-diamminedichloroplatinum(II), reference compound]	14 ± 2					3.2 ± 0.6		1.58 ± 0.97	14 ± 3		2.1 ± 0.1	5 ± 2					

Further lines, with some results ahead:

HeLa Cellular Uptake [2] [ng Pt/10^6 cells]	solubility in aqueous and organic solvent ([9]; aqueous and organic solvent)	half-life of decomposition in water [3] [days]	half-life of decomposition in pH 7.4 PBS [6] [days]	solubility in water [9]	SMILES	IC50 [1] [µM]	stability in water (1H NMR spectra) [3]	Pt/DNA [4] [pmol/µg]	IC50 [5] [µM]	stability in pH 7.4 PBS (1H NMR spectra) [6]	IC50 [7] [µM]	IC50 [8] [µM]	DNA platination [4]	decomposition in water [10]	average cell growth in CNS cancer cell lines [11] [%]	IC50 [12] [µM]	average cell growth percentage of the 60 cell lines [13] [%]
6 ± 2					CC1=CC(C)=[O+][Pt-2]([NH3+])([NH3+])[O]1.CC1=CC(C)=[O+][Pt-2]([NH3+])([NH3+])[O]1.O=S(=O)([O-])[O-] (stereo not shown) [Compound 1, [Pt(acac)(NH3)2](SO4)0.5]	28 ± 9	no changes; also recorded: no sign of decomposition	0.063 ± 0.012	76 ± 2	no changes; also recorded: no sign of decomposition	32 ± 5	24 ± 2					
83 ± 8				only sparingly soluble in water	CC1=CC(c2ccccc2)=[O+][Pt-2]([NH3+])([NH3+])[O]1.O=[N+]([O-])[O-] (stereo not shown) [Compound 3, [Pt(bzac)(NH3)2](NO3)]	7 ± 2	no changes; also recorded: no sign of decomposition	0.35 ± 0.24	33 ± 6	no changes; also recorded: no sign of decomposition	24 ± 4	8 ± 2	≈ 0.3 pmol Pt/μg DNA				
160 ± 20		29	1.8	only sparingly soluble in water	O=[N+]([O-])[O-].[NH3+][Pt-2]1([NH3+])[O]C(C(F)(F)F)=CC(c2ccccc2)=[O+]1 (stereo not shown) [Compound 4, [Pt(tfbz)(NH3)2](NO3)]	1.3 ± 0.2		14 ± 3	4.3 ± 0.3		3 ± 1	1.6 ± 0.5			64.52	2.6	89.65
520±80					O=[N+]([O-])[O-].[NH3+][Pt-2]1([NH3+])[O]C(c2ccccc2)=CC(c2ccccc2)=[O+]1 (stereo not shown) [Compound 5, [Pt(dbm)(NH3)2](NO3)]	1.3 ± 0.3	no changes; also recorded: no sign of decomposition	23 ± 10	3.1 ± 0.5	no changes; also recorded: no sign of decomposition	6.7 ± 0.7	2.7 ± 0.7					
